Measurements reported in patent publication US20230263826A1, “Compositions and Methods for Treatment and Prevention of Type 1 Diabetes” (The UAB Research Foundation, priority 2021, published 2023).

Tests used:
iPLA2β = molecular target: T1, iPLA2β (Mus musculus, UniProt P97819); test: Urinary PGE2 metabolites (PGEM), reflecting in vivo inhibition of iPLA2β activity; settings: 8-week regimen group; 18 weeks of age
T1 construct: from tissue; host or cells: whole animal: female NOD mice (wild-type Pla2g6), urine collected for PGE2 metabolites
T1 sequence (P97819 1-807): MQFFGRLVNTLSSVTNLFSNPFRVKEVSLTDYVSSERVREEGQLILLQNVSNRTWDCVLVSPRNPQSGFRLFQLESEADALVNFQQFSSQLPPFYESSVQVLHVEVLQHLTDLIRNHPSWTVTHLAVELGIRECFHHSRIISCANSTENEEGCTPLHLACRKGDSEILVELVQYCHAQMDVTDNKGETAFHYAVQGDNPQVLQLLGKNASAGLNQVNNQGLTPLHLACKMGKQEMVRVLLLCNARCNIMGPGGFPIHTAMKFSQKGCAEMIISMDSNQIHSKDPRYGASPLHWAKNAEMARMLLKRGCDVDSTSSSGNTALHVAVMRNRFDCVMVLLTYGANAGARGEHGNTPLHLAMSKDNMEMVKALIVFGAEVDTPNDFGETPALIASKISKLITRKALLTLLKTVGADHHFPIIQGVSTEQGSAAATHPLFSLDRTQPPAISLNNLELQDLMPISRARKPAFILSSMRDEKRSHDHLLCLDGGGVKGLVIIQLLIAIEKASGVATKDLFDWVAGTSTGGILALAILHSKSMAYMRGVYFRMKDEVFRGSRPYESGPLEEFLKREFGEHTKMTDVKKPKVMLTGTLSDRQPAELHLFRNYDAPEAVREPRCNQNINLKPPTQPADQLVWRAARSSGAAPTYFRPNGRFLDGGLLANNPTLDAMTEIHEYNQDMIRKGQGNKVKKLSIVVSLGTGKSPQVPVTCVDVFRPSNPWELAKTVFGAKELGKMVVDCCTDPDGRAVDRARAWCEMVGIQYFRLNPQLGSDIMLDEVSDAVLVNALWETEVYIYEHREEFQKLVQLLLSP
Description: (§1) FIGS. 1A-1M show the effects of temporal FKGK18 regimen on T1D incidence and islet phenotype, wherein female NOD mice were administered FKGK18 (20 mg/kg, 3 × weekly) or vehicle (PBS-T) starting at 4 or 8 weeks of age. FIGS. 1A and 1B show diabetes incidence; blood glucose was monitored weekly in the 4-week (FIG. 1A; n = 17 and 15 for PBS-T and FKGK18 groups, respectively) and 8-week (FIG. 1B; n = 15 each in the PBS-T and FKGK18 groups) regimen groups for up to 30 weeks. Two consecutive readings of ≥ 275 mg/dL were recorded as onset of T1D (^†P < 0.05). FIGS. 1C-1F show glucose tolerance test (GTT) results, wherein overnight fasted mice were administered glucose (2 g/kg, i.p.), glucose levels in blood from tail vein were monitored over a 2-hour period, and AUC were generated. […] FIGS. 1H and 1I show β Cell mass (PBS-T, n = 15; FKGK18, n = 14) (FIG. 1H) and circulating insulin (n = 15 in each group) (FIG. 1I) were determined at sacrifice (PBS-T, 14-30 weeks of age; FKGK18, 16-36 weeks of age). FIGS. 1J and 1K show islet infiltration; paraffin sections (10 µm) of pancreas were prepared and stained with H&E. Percent infiltration for each islet was calculated as the value of noninfiltrated area subtracted from total islet area (% infiltrate = 100 × [(total area - noninfiltrated area)/(total area)]) using ImageJ software. […]

female NOD mice = test: i.p. glucose tolerance test (GTT) in FKGK18-treated NOD mice; assay type: in vivo, mouse; settings: for glucose tolerance vs PBS-T: glucose 2 g/kg i.p.
Description: as §1, with “generated. FIGS. 1C and 1D show four-week group at 14 weeks of age; n = 5 each in the PBS-T and FKGK18 groups. FIGS. 1E and 1F show eight-week group at 25 weeks of age; n = 7 and 5 for PBS-T and FKGK18 groups, respectively. FIGS. 1G-1I show phenotype parameters in the 8-week regimen group.” for “generated.”
FIGS. 2A-2E show the effects of FKGK18-withdrawal regimen on T1D incidence and glucose tolerance, wherein female NOD mice were administered FKGK18 (20 mg/kg, 3 × weekly, n = 18) or vehicle (PBS-T, n = 17) starting at 10 days of age and until 14 weeks of age. […] FIGS. 2B and 2D show glucose tolerance test (GTT) results, assessed at 14 (FIG. 2B) and 25 (FIG. 2D) weeks of age (data are presented as mean ± SEM), as described in FIG. 1. […]

With `O=C(CCCCc1ccc2ccccc2c1)C(F)(F)F` [FKGK18] the “urinary PGE2 metabolites (PGEM) relative to vehicle-treated mice” value (iPLA2β) was “reduced”, the “glucose tolerance, PBS-T vs FKGK18-withdrawn group” value (female NOD mice; FKGK18 from 10 days until 14 weeks of age, GTT at 14 and 25 weeks of age) was “indistinguishable” and the “glucose tolerance vs PBS-T” value (female NOD mice; FKGK18 started at 4 weeks of age, GTT at 14 weeks of age) was “No differences”. The “glucose tolerance vs PBS-T” value (female NOD mice; FKGK18 started at 8 weeks of age, GTT at 25 weeks of age) was “No differences”.
